Data from paper PMC9535023, “Inhibition of phospholipase D1 induces immunogenic cell death and potentiates cancer immunotherapy in colorectal cancer” (Experimental & Molecular Medicine, 2022).

Experiments:
PLD [1] = assay: PLD activity assay in DLD1 cells; format: cell-based; conditions: compared to unsubstituted congener
Procedure: (§1) Cells were labeled with [H^3] myristic acid, and PLD activity was assessed by measuring the formation of [H^3] phosphatidylbutanol, which is the product of PLD-mediated transphosphatidylation, in the presence of 1-butanol, as previously described.

PLD1 = target: T1, PLD1 (Homo sapiens, UniProt Q13393); assay: Streptavidin pull-down assay, PLD1; format: binding; conditions: 10 μM, various CRC cell lysates
T1 construct: endogenous in cells
T1 sequence (Q13393 1-1074): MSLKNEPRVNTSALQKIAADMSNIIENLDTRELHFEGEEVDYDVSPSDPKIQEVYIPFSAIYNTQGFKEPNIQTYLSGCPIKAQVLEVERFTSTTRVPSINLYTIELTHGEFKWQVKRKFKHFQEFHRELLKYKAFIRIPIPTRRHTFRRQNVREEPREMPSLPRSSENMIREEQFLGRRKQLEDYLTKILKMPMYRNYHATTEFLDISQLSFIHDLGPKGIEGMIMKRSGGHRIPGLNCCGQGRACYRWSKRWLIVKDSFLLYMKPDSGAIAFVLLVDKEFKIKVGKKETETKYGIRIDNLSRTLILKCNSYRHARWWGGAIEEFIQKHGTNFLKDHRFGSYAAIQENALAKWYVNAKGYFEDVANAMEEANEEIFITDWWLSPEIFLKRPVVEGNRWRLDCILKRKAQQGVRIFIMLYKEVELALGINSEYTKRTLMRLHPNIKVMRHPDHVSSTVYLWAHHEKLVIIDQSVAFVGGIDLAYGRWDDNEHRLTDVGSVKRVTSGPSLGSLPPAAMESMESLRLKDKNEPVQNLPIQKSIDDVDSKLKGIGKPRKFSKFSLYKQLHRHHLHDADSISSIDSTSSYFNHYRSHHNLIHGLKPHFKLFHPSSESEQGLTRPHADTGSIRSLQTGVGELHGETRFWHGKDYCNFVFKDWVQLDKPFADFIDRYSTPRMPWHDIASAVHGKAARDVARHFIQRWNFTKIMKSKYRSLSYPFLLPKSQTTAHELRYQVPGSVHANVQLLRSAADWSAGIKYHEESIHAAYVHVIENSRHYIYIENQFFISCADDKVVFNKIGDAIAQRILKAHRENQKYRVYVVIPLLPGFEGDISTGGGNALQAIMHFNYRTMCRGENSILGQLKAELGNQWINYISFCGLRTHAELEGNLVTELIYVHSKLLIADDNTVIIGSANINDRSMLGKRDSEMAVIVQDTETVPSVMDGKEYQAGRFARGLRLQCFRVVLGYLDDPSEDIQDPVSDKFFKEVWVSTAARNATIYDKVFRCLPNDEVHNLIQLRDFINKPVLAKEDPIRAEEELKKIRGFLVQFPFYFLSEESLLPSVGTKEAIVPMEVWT
Procedure: Cells were lysed in passive lysis buffer (Promega). Cell lysates were incubated with biotinylated chemicals (A4333, 10 μM) or biotin (10 μM) at 37 °C for 1 h and treated with streptavidin beads (Thermo Scientific) at 20 °C for 1 h. After removing free biotinylated chemicals by washing with PBS, the samples were subjected to SDS‒PAGE followed by immunoblotting with an antibody against PLD[20].

PLD [2] = assay: PLD activity assay in HCT 116 cells; format: cell-based; conditions: at 10 μM (Fig. 1c)
Procedure: as §1

FHC cells [3] = assay: Cell cycle analysis (BrdU/7-AAD flow cytometry), FHC; format: cell-based; conditions: FHC normal fetal colonic mucosa cells
Procedure: (§2) For cell cycle analysis, the cells were treated with Α3373 or 5-FU. The cells were labeled with 10 μΜ bromodeoxyuridine (BrdU) for 2 h. Subsequently, the cells were stained with 7-aminoactinomycin D (7-AAD, Invitrogen) and a fluorescein isothiocyanate (FITC)-conjugated anti-BrdU antibody (Invitrogen). Apoptotic cells were detected using an Annexin V-FITC Apoptosis Detection Kit (BD Biosciences). The cells were analyzed using BD FACSAria III (BD Biosciences), and data analysis was performed using FlowJo v10.0 (BD Biosciences).

DLD1 cells [4] = assay: Cell cycle analysis (BrdU/7-AAD flow cytometry), DLD1; format: cell-based
Procedure: as §2

FHC cells [5] = assay: Apoptosis assay (annexin V flow cytometry), FHC; format: cell-based
Procedure: as §2

DLD1 cells [6] = assay: Apoptosis assay (annexin V flow cytometry), DLD1; format: cell-based
Procedure: as §2

O=C(CCCC[C@@H]1SC[C@@H]2NC(=O)N[C@@H]21)NNC(=O)c1ccc2[nH]c(C(=O)Nc3cc(C(F)(F)F)cc(C(F)(F)F)c3)cc2c1 [Compound A4333]
PLD inhibition, in words (PLD [1]): still potent for PLD inhibition
interaction with PLD1 (pull-down) (PLD1): interacted with PLD1

C[C@@H](CN1CCC(n2c(=O)[nH]c3cc(Cl)ccc32)CC1)NC(=O)c1ccc2ccccc2c1 [VU0155069, reference compound]
PLD activity remained (PLD [2]): 30.4%

O=c1[nH]cc(F)c(=O)[nH]1 [Compound 5-FU, 5-fluorouracil, reference compound]
cell cycle / S phase in FHC cells, in words (FHC cells [3]): decreased the S phase population
cell cycle / proliferation of CRC cells, in words (DLD1 cells [4]): decreased the S phase population
apoptosis of FHC cells, in words (FHC cells [5]): increased the apoptosis of both CRC and FHC cells
apoptosis of CRC cells, in words (DLD1 cells [6]): increased the apoptosis of both CRC and FHC cells
